From patent US8231891B2, “Implantable drug depot for weight control” (Warsaw Orthopedic, Inc., priority 2009, dated 2012)

Key:
[1] = long term use of the drug; cited from earlier work
[2] = Weight gain of rats receiving fluocinolone by daily subcutaneous injection; type: in vivo, Wistar rats; settings: FIG. 39; systemic subcutaneous injection, 25 ug/kg daily for 22 days
Experimental: Forty Wistar rats were utilized in this study. The forty rats were divided into 4 groups. Group 1 rats (10 in total) each received fluocinolone acetonide via systemic subcutaneous injection at a dosage of 0.5 ug/kg daily. Group 2 rats (10 in total) each received fluocinolone acetonide via systemic subcutaneous injection at a dosage of 5 ug/kg daily. Group 3 rats (10 in total) each received fluocinolone acetonide via systemic subcutaneous injection at a dosage of 25 ug/kg daily. Group 4 rats (10 in total) were the control in this study and received saline injections.

Compound | average weight loss [1] [lbs] | body weight increase compared to control rats (saline) [2]
CCCCCCCCCCC[C@@H](C[C@@H]1OC(=O)[C@H]1CCCCCC)OC(=O)[C@H](CC(C)C)NC=O [Orlistat] | 6.4 | 
CC(C)CC(N(C)C)C1(c2ccc(Cl)cc2)CCC1 (stereo not shown) [Sibutramine] | 9.3 | 
CC1(C)O[C@@H]2C[C@H]3[C@@H]4C[C@H](F)C5=CC(=O)C=C[C@]5(C)[C@@]4(F)[C@@H](O)C[C@]3(C)[C@]2(C(=O)CO)O1 [fluocinolone acetonide, 6α-,9α-Difluoro-16 α-hydroxyprednisolone 16,17-acetonide] |  | did not exhibit as much body weight increase as control rats
Cc1c(C(=O)NN2CCCCC2)nn(-c2ccc(Cl)cc2Cl)c1-c1ccc(Cl)cc1 [Rimonabant] | 10.4 | 
